Data reported in article PMC3679788, “Factors affecting antiretroviral pharmacokinetics in HIV-infected women with virologic suppression on combination antiretroviral therapy: a cross-sectional study” (BMC Infectious Diseases, 2013).
Where two headings read alike, the source gives them in different places.

How the values were obtained:
[1] = Plasma Cmin and Cmax of PI/NNRTI in HIV-positive women on cART (LC-MS/MS); assay type: in vivo, human; conditions: for Cmin Intra-patient CV median (IQR) / Cmax median ratio to historical population mean (IQR) / Cmax n (%) >1.5 Historical pop mean (percent of participants) / Cmin median ratio to historical population mean (IQR) / Cmin n (%) >1.5 historical pop Mean (percent of participants) / Cmax Inter-patient CV / Cmin Inter-patient CV / Cmin Study participants median (IQR) / Cmin Mean (SD) / Cmax at 3 h / Cmax at 2 h / Cmax at 5 h / Cmax: HIV-positive women; for Cmin Intra-patient CV median (IQR): 3 weekly visits; for Cmax Inter-patient CV: from individual median Cmax; for Cmin Inter-patient CV: from individual median Cmin; for Cmin Study participants median (IQR) / Cmin Mean (SD) / Cmax at 3 h / Cmax at 2 h / Cmax at 5 h / Cmax: plasma; for Cmin Study participants median (IQR) / Cmin Mean (SD): pre-dose, in ng/mL; for Cmax at 3 h / Cmax at 2 h / Cmax at 5 h / Cmax: female, human, oral; for Cmax at 3 h: 3 hours post-dose; for Cmax at 2 h: 2 hours post-dose; for intra-patient variability for Cmax, in words / intra-patient variability for Cmin, in words / inter-patient variability (CV) for both Cmin and Cmax, in words: compared among the regimens; for intra-patient variability for Cmax, in words / inter-patient variability (CV) for both Cmin and Cmax, in words: nevirapine and lopinavir/ritonavir as BID; for intra-patient variability for Cmin, in words: nevirapine as BID; for Cmax at 5 h: 600 mg, 5 hours post-dose
Description: Patients were asked to fast from midnight of the previous night. One hour before their scheduled morning dose the pre-dose blood collection was drawn (Cmin t) (alternative arrangements were made if the patient took their drugs in the evening). […] Concentrations of the PIs and the NNRTIs in plasma were measured simultaneously by sensitive and selective, validated high-performance liquid chromatography coupled to tandem mass-spectroscopy (LC-MS/MS). All samples were analyzed at the pharmacokinetic laboratory at the Ottawa Hospital Research Institute in Ottawa, Canada. The PK endpoints for each patient were determined by taking the median of the three weekly values for the Cmin and Cmax. The rationale for measuring drug levels at three separate time points was that there is potentially intra-individual variability in drug levels, especially for PIs. Using the median value for the endpoints eliminated outliers. The three drug level measurements allowed for the calculation of intra-patient variability. […] Next, for each subject the ratio of their median Cmin and Cmax for their main PI or NNRTI to this published drug level was calculated and used as the primary outcome as previously reported by Burger et al. […] Inter-patient variability of Cmin and Cmax for each antiretroviral drug was assessed by calculating the coefficient of variation (CV) using each individual’s median Cmin and Cmax. […] These values are summarized using median and IQR of the individual CVs. […] Finally, linear regression models were fit to assess correlates of the square root-transformed Cmin and Cmax ratios. […] The regression models included indicator variables to account for the different antiretroviral medications and each potential correlate was included separately in an adjusted model. Statistical analyses were performed using SAS Version 9.2 (SAS Institute, Cary, North Carolina, USA).

[2] = cited from earlier work
[3] = historical HIV population, atazanavir 400 mg QD; cited from earlier work
[4] = compared among the antiretrovirals
[5] = 400 mg, 400 mg QD, read-out: Cmax Study participants median (IQR)
[6] = 400 mg, 400 QD, read-out: Cmax Mean (SD)

COC(=O)N[C@H](C(=O)N[C@@H](Cc1ccccc1)[C@@H](O)CN(Cc1ccc(-c2ccccn2)cc1)NC(=O)[C@@H](NC(=O)OC)C(C)(C)C)C(C)(C)C [Atazanavir boosted with ritonavir, atazanavir]
Cmin Intra-patient CV median (IQR) ([1]; 300 QD boosted with ritonavir): 26.3 (15.6-56.1)
Cmax median ratio to historical population mean (IQR) ([1]; 300 QD boosted with ritonavir): 0.66 (0.51-0.85)
Cmax n (%) >1.5 Historical pop mean (percent of participants) ([1]; 300 QD boosted with ritonavir): 0 (0.0%)
Cmin median ratio to historical population mean (IQR) ([1]; 300 QD boosted with ritonavir): 0.97 (0.77-1.42)
Cmin n (%) >1.5 historical pop Mean (percent of participants) ([1]; 300 QD boosted with ritonavir): 4 (22.2%)
Cmax Inter-patient CV ([1]; 300 QD boosted with ritonavir): 41.4%
Cmin Inter-patient CV ([1]; 300 QD boosted with ritonavir): 65.6%
Cmin Study participants median (IQR) ([1]; 300 mg QD with ritonavir 100 mg): 835 (663–1220)
Cmin Mean (SD) ([1]; 300 QD boosted with ritonavir): 1065.6 (699.2)
Cmax at 3 h ([1]; 300 mg QD with ritonavir 100 mg, read-out: Cmax Study participants median (IQR)): 3.43 µg/mL
Cmax at 3 h ([1]; 300 QD boosted with ritonavir, read-out: Cmax Mean (SD)): 3.53 µg/mL

COC(=O)N[C@H](C(=O)N[C@@H](Cc1ccccc1)[C@@H](O)CN(Cc1ccc(-c2ccccn2)cc1)NC(=O)[C@@H](NC(=O)OC)C(C)(C)C)C(C)(C)C [Atazanavir, atazanavir]
Cmin Intra-patient CV median (IQR) ([1]; 400 QD): 57.4 (40.5-86.7)
Cmax median ratio to historical population mean (IQR) ([1]; 400 QD): 0.59 (0.31-0.94)
Cmax n (%) >1.5 Historical pop mean (percent of participants) ([1]; 400 QD): 0 (0.0%)
Cmin median ratio to historical population mean (IQR) ([1]; 400 QD): 0.78 (0.35-1.37)
Cmin n (%) >1.5 historical pop Mean (percent of participants) ([1]; 400 QD): 2 (22.2%)
Cmax median ratio to historical population mean (IQR) ([1]; all doses of the drug pooled): 0.65 (0.44-0.87)
Cmax n (%) >1.5 Historical pop mean (percent of participants) ([1]; all doses of the drug pooled): 0 (0.0%)
Cmin median ratio to historical population mean (IQR) ([1]; all doses of the drug pooled): 0.95 (0.53-1.42)
Cmin n (%) >1.5 historical pop Mean (percent of participants) ([1]; all doses of the drug pooled): 6 (22.2%)
Cmax Inter-patient CV ([1]; 400 QD): 57.3%
Cmin Inter-patient CV ([1]; 400 QD): 78.0%
Cmin Study participants median (IQR) ([1]; 400 mg QD): 214 (95–373)
Cmin Mean (SD) ([1]; 400 QD): 250.4 (195.4)
inter-patient variability, in words [1, 4]: greatest observed inter-patient variability
ratios of both Cmin and Cmax versus historical reference values, in words [1, 4]: lowest ratios
Cmax at 2 h [1, 5]: 1.87 µg/mL
Cmax at 2 h [1, 6]: 2 µg/mL
Inter- and intra-patient variability, in words ([1]; particularly when not boosted with ritonavir): high
increase in AUC in women ([2]; in vivo): approximately 20%
Cmax Population mean [3]: 3.15 µg/mL

O=C1Nc2ccc(Cl)cc2[C@@](C#CC2CC2)(C(F)(F)F)O1 [Efavirenz, efavirenz]
Cmin Intra-patient CV median (IQR) ([1]; 600 QD): 17.7 (10.5-25.1)
Cmax median ratio to historical population mean (IQR) ([1]; 600 QD): 0.79 (0.57-1.27)
Cmax n (%) >1.5 Historical pop mean (percent of participants) ([1]; 600 QD): 4 (25.0%)
Cmin median ratio to historical population mean (IQR) ([1]; 600 QD): 0.95 (0.67-1.95)
Cmin n (%) >1.5 historical pop Mean (percent of participants) ([1]; 600 QD): 6 (37.5%)
Cmax Inter-patient CV ([1]; 600 QD): 52.4%
Cmin Inter-patient CV ([1]; 600 QD): 55.0%
Cmin Study participants median (IQR) ([1]; 600 mg QD): 1680 (1180–3450)
Cmin Mean (SD) ([1]; 600 QD): 2196.9 (1209.2)
intra-patient variability for Cmax, in words [1]: lowest intra-patient variability
intra-patient variability for Cmin, in words [1]: lowest intra-patient variability
Cmax at 5 h ([1]; 600 mg QD, read-out: Cmax Study participants median (IQR)): 3.23 µg/mL
Cmax at 5 h ([1]; 600 QD, read-out: Cmax Mean (SD)): 3.93 µg/mL
serum levels in women ([2]; in vivo): higher

Cc1cccc(C)c1OCC(=O)N[C@@H](Cc1ccccc1)[C@@H](O)C[C@H](Cc1ccccc1)NC(=O)[C@H](C(C)C)N1CCCNC1=O [Lopinavir boosted with ritonavir, lopinavir]
Cmin Intra-patient CV median (IQR) ([1]; 400 BID boosted with ritonavir): 23.8 (12.8-75.8)
Cmin Intra-patient CV median (IQR) ([1]; 800 QD boosted with ritonavir): 63.4 (35.2- 115)
Cmax n (%) >1.5 Historical pop mean (percent of participants) ([1]; 400 BID boosted with ritonavir): 0 (0.0%)
Cmin n (%) >1.5 historical pop Mean (percent of participants) ([1]; 400 BID boosted with ritonavir): 3 (18.8%)
Cmax n (%) >1.5 Historical pop mean (percent of participants) ([1]; 800 QD boosted with ritonavir): 0 (0.0%)
Cmin n (%) >1.5 historical pop Mean (percent of participants) ([1]; 800 QD boosted with ritonavir): 3 (75.0%)
Cmax n (%) >1.5 Historical pop mean (percent of participants) ([1]; all doses of the drug pooled): 0 (0.0%)
Cmin n (%) >1.5 historical pop Mean (percent of participants) ([1]; all doses of the drug pooled): 6 (30.0%)
Cmax Inter-patient CV ([1]; 400 BID boosted with ritonavir): 32.8%
Cmax Inter-patient CV ([1]; 800 QD boosted with ritonavir): 39.8%
Cmin Inter-patient CV ([1]; 400 BID boosted with ritonavir): 44.7%
Cmin Inter-patient CV ([1]; 800 QD boosted with ritonavir): 72.5%
Cmin Study participants median (IQR) ([1]; 400 mg BID with ritonavir 100 mg): 6660 (4360–7710)
Cmin Study participants median (IQR) ([1]; 800 mg QD with ritonavir 200 mg): 6445 (2452–8260)
Cmin Mean (SD) ([1]; 400 BID boosted with ritonavir): 6370.0 (2846.4)
Cmin Mean (SD) ([1]; 800 QD boosted with ritonavir): 5356.2 (3882.3)
inter-patient variability (CV) for both Cmin and Cmax, in words [1]: least inter-patient variability
intra-patient variability for Cmax, in words [1]: lowest intra-patient variability
Cmax ([1]; 800 mg QD with ritonavir 200 mg, read-out: Cmax Study participants median (IQR)): 11.7 µg/mL
Cmax ([1]; 800 QD boosted with ritonavir, read-out: Cmax Mean (SD)): 11.2 µg/mL
increase in AUC in women ([2]; in vivo): approximately 20%

Cc1ccnc2c1NC(=O)c1cccnc1N2C1CC1 [Nevirapine, nevirapine]
Cmin Intra-patient CV median (IQR) ([1]; 200 BID): 13.9 (10.2-27.8)
Cmin Intra-patient CV median (IQR) ([1]; 400 QD): 21.3 (12.1-44.9)
Cmax median ratio to historical population mean (IQR) ([1]; 200 BID): 0.96 (0.84-1.37)
Cmax n (%) >1.5 Historical pop mean (percent of participants) ([1]; 200 BID): 2 (18.2%)
Cmin median ratio to historical population mean (IQR) ([1]; 200 BID): 1.41 (0.91-1.93)
Cmin n (%) >1.5 historical pop Mean (percent of participants) ([1]; 200 BID): 5 (45.5%)
Cmax median ratio to historical population mean (IQR) ([1]; 400 QD): 0.96 (0.72-1.40)
Cmax n (%) >1.5 Historical pop mean (percent of participants) ([1]; 400 QD): 1 (12.5%)
Cmin median ratio to historical population mean (IQR) ([1]; 400 QD): 2.08 (0.90-2.53)
Cmin n (%) >1.5 historical pop Mean (percent of participants) ([1]; 400 QD): 5 (62.5%)
Cmax median ratio to historical population mean (IQR) ([1]; all doses of the drug pooled): 0.96 (0.81-1.37)
Cmax n (%) >1.5 Historical pop mean (percent of participants) ([1]; all doses of the drug pooled): 3 (15.8%)
Cmin median ratio to historical population mean (IQR) ([1]; all doses of the drug pooled): 1.62 (0.91-2.32)
Cmin n (%) >1.5 historical pop Mean (percent of participants) ([1]; all doses of the drug pooled): 10 (52.6%)
Cmax Inter-patient CV ([1]; 200 BID): 37.8%
Cmax Inter-patient CV ([1]; 400 QD): 39.9%
Cmin Inter-patient CV ([1]; 200 BID): 45.4%
Cmin Inter-patient CV ([1]; 400 QD): 57.0%
Cmin Study participants median (IQR) ([1]; 200 mg BID): 5270 (3380–7190)
Cmin Study participants median (IQR) ([1]; 400 mg QD): 5995 (2590–7275)
Cmin Mean (SD) ([1]; 200 BID): 5693.6 (2586.8)
Cmin Mean (SD) ([1]; 400 QD): 5027.9 (2867.2)
Cmin ratio to published population mean, in words [1, 4]: highest ratios
inter-patient variability (CV) for both Cmin and Cmax, in words [1]: least inter-patient variability
intra-patient variability for Cmax, in words [1]: lowest intra-patient variability
intra-patient variability for Cmin, in words [1]: lowest intra-patient variability
Cmax at 2 h ([1]; 200 mg, 200 mg BID, read-out: Cmax Study participants median (IQR)): 5.51 µg/mL
Cmax at 2 h ([1]; 200 mg, 200 BID, read-out: Cmax Mean (SD)): 6.49 µg/mL
Cmax at 2 h [1, 5]: 6.4 µg/mL
Cmax at 2 h [1, 6]: 6.92 µg/mL
exposure in pregnant women ([2]; in vivo): lower
serum levels in women ([2]; in vivo): higher

CC(C)CN(C[C@@H](O)[C@H](Cc1ccccc1)NC(=O)O[C@H]1CO[C@H]2OCC[C@H]21)S(=O)(=O)c1ccc(N)cc1 [darunavir]
increase in AUC in women ([2]; women versus men, product monographs): approximately 20%

CC(C)(C)NC(=O)[C@@H]1C[C@@H]2CCCC[C@@H]2CN1C[C@@H](O)[C@H](Cc1ccccc1)NC(=O)[C@H](CC(N)=O)NC(=O)c1ccc2ccccc2n1 [saquinavir]
serum levels in women versus men ([2]; in vivo): significantly higher in women than in men
